# Reference: ChEMBL document CHEMBL1201862, “PubChem BioAssay data set” (2004)
#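 Protocol summary: plate cells (96-well), add compound at 5 concentrations, incubate 48 h, interpolate endpoints linearly. GI50 marks 50% less growth.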 Activity calls are given as the source filed them. Cut-off read from the data, not from the text of the source: active = GI50 up to about 1.1 µM and inactive = higher.
# Tests used:
# Assay in all cases: inhibition of tumour cell growth, NCI panel, 48 h
# 786-0 = test system: 786-0
# A498 = test system: A498
# A549 = test system: A549
# ACHN = test system: ACHN
# CAKI-1 = test system: CAKI-1
# CCRF-CEM = test system: CCRF-CEM
# COLO 205 = test system: COLO 205
# DLD-1 = test system: DLD-1
# DMS-114 = test system: DMS-114
# DMS-273 = test system: DMS-273
# EKVX = test system: EKVX
# HCC 2998 = test system: HCC 2998
# HCT-116 = test system: HCT-116
# HCT-15 = test system: HCT-15
# HL-60 = test system: HL-60
# HOP-18 = test system: HOP-18
# HOP-62 = test system: HOP-62
# HOP-92 = test system: HOP-92
# IGROV-1 = test system: IGROV-1
# K562 = test system: K562
# KM-20L2 = test system: KM-20L2
# KM12 = test system: KM12
# LOX IMVI = test system: LOX IMVI
# LXFL 529 = test system: LXFL 529
# M14 = test system: M14
# M19-MEL = test system: M19-MEL
# MOLT-4 = test system: MOLT-4
# Malme-3M = test system: Malme-3M
# NCI-H226 = test system: NCI-H226
# NCI-H23 = test system: NCI-H23
# NCI-H460 = test system: NCI-H460
# NCI-H522 = test system: NCI-H522
# OVCAR-3 = test system: OVCAR-3
# OVCAR-4 = test system: OVCAR-4
# OVCAR-5 = test system: OVCAR-5
# OVCAR-8 = test system: OVCAR-8
# RPMI-8226 = test system: RPMI-8226
# RXF 393 = test system: RXF 393
# RXF 631 = test system: RXF 631
# SF-268 = test system: SF-268
# SF-295 = test system: SF-295
# SF-539 = test system: SF-539
# SK-MEL-28 = test system: SK-MEL-28
# SK-MEL-2 = test system: SK-MEL-2
# SK-MEL-5 = test system: SK-MEL-5
# SK-OV-3 = test system: SK-OV-3
# SN12C = test system: SN12C
# SNB-19 = test system: SNB-19
# SNB-75 = test system: SNB-75
# SNB-78 = test system: SNB-78
# SR = test system: SR
# SW-620 = test system: SW-620
# TK-10 = test system: TK-10
# U-251 = test system: U-251
# UACC-257 = test system: UACC-257
# UACC-62 = test system: UACC-62
# UO-31 = test system: UO-31
# XF498 = test system: XF498
# HT-29 = test system: HT-29
# BT-549 = test system: BT-549
# DU-145 = test system: DU-145
# Hs-578T = test system: Hs-578T
# MCF7 = test system: MCF7
# MDA-MB-231 = test system: MDA-MB-231
# MDA-MB-435 = test system: MDA-MB-435
# MDA-N = test system: MDA-N
# NCI/ADR-RES = test system: NCI/ADR-RES
# PC-3 = test system: PC-3
smiles,measurement,setting,value
N#CC12CC3(CCC1CCC1(C2)OCCO1)OCCO3 (stereo not given),GI50,786-0,> 100 µM (inactive)
same,GI50,A498,> 100 µM (inactive)
same,GI50,A549,> 100 µM (inactive)
same,GI50,ACHN,> 100 µM (inactive)
same,GI50,CAKI-1,> 100 µM (inactive)
same,GI50,CCRF-CEM,> 100 µM (inactive)
same,GI50,COLO 205,> 100 µM (inactive)
same,GI50,DLD-1,> 100 µM (inactive)
same,GI50,DMS-114,> 100 µM (inactive)
same,GI50,DMS-273,> 100 µM (inactive)
same,GI50,EKVX,> 100 µM (inactive)
same,GI50,HCC 2998,> 100 µM (inactive)
same,GI50,HCT-116,> 100 µM (inactive)
same,GI50,HCT-15,> 100 µM
same,GI50,HL-60,> 100 µM (inactive)
same,GI50,HOP-18,> 100 µM (inactive)
same,GI50,HOP-62,> 100 µM (inactive)
same,GI50,HOP-92,> 100 µM (inactive)
same,GI50,IGROV-1,> 100 µM (inactive)
same,GI50,K562,> 100 µM (inactive)
same,GI50,KM-20L2,> 100 µM (inactive)
same,GI50,KM12,> 100 µM (inactive)
same,GI50,LOX IMVI,> 100 µM (inactive)
same,GI50,LXFL 529,> 100 µM (inactive)
same,GI50,M14,> 100 µM (inactive)
same,GI50,M19-MEL,> 100 µM (inactive)
same,GI50,MOLT-4,> 100 µM (inactive)
same,GI50,Malme-3M,> 100 µM (inactive)
same,GI50,NCI-H226,> 100 µM (inactive)
same,GI50,NCI-H23,> 100 µM (inactive)
same,GI50,NCI-H460,> 100 µM (inactive)
same,GI50,NCI-H522,> 100 µM (inactive)
same,GI50,OVCAR-3,> 100 µM (inactive)
same,GI50,OVCAR-4,> 100 µM (inactive)
same,GI50,OVCAR-5,> 100 µM (inactive)
same,GI50,OVCAR-8,> 100 µM (inactive)
same,GI50,RPMI-8226,> 100 µM (inactive)
same,GI50,RXF 393,> 100 µM (inactive)
same,GI50,RXF 631,> 100 µM (inactive)
same,GI50,SF-268,> 100 µM (inactive)
same,GI50,SF-295,> 100 µM (inactive)
same,GI50,SF-539,> 100 µM (inactive)
same,GI50,SK-MEL-28,> 100 µM (inactive)
same,GI50,SK-MEL-2,> 100 µM (inactive)
same,GI50,SK-MEL-5,> 100 µM (inactive)
same,GI50,SK-OV-3,> 100 µM (inactive)
same,GI50,SN12C,> 100 µM (inactive)
same,GI50,SNB-19,> 100 µM (inactive)
same,GI50,SNB-75,> 100 µM (inactive)
same,GI50,SNB-78,> 100 µM (inactive)
same,GI50,SR,> 100 µM (inactive)
same,GI50,SW-620,> 100 µM (inactive)
same,GI50,TK-10,> 100 µM (inactive)
same,GI50,U-251,> 100 µM (inactive)
same,GI50,UACC-257,> 100 µM (inactive)
same,GI50,UACC-62,> 100 µM (inactive)
same,GI50,UO-31,> 100 µM (inactive)
same,GI50,XF498,> 100 µM (inactive)
O=C(CCc1nnc2s/c(=C\c3ccccc3)c(=O)n12)Nc1cc(Cl)ccc1Cl,GI50,786-0,> 100 µM (inactive)
same,GI50,A498,> 100 µM (inactive)
same,GI50,A549,> 100 µM (inactive)
same,GI50,ACHN,> 100 µM (inactive)
same,GI50,CAKI-1,> 100 µM (inactive)
same,GI50,CCRF-CEM,> 100 µM (inactive)
same,GI50,COLO 205,> 100 µM (inactive)
same,GI50,DLD-1,> 100 µM (inactive)
same,GI50,DMS-114,> 100 µM (inactive)
same,GI50,DMS-273,> 100 µM (inactive)
same,GI50,EKVX,> 100 µM (inactive)
same,GI50,HCC 2998,> 100 µM (inactive)
same,GI50,HCT-116,24 µM (inactive)
same,GI50,HCT-15,34.2 µM
same,GI50,HL-60,> 100 µM (inactive)
same,GI50,HOP-18,> 100 µM (inactive)
same,GI50,HOP-62,> 100 µM (inactive)
same,GI50,HOP-92,> 100 µM (inactive)
same,GI50,HT-29,> 100 µM (inactive)
same,GI50,IGROV-1,> 100 µM (inactive)
same,GI50,K562,> 100 µM (inactive)
same,GI50,KM-20L2,> 100 µM (inactive)
same,GI50,KM12,> 100 µM (inactive)
same,GI50,LOX IMVI,> 100 µM (inactive)
same,GI50,LXFL 529,> 100 µM (inactive)
same,GI50,M14,> 100 µM (inactive)
same,GI50,M19-MEL,> 100 µM (inactive)
same,GI50,MOLT-4,> 100 µM (inactive)
same,GI50,Malme-3M,> 100 µM (inactive)
same,GI50,NCI-H226,> 100 µM (inactive)
same,GI50,NCI-H23,> 100 µM (inactive)
same,GI50,NCI-H460,> 100 µM (inactive)
same,GI50,NCI-H522,> 100 µM (inactive)
same,GI50,OVCAR-3,> 100 µM (inactive)
same,GI50,OVCAR-4,> 100 µM (inactive)
same,GI50,OVCAR-5,> 100 µM (inactive)
same,GI50,OVCAR-8,> 100 µM (inactive)
same,GI50,RPMI-8226,> 100 µM (inactive)
same,GI50,RXF 393,> 100 µM (inactive)
same,GI50,RXF 631,> 100 µM (inactive)
same,GI50,SF-268,> 100 µM (inactive)
same,GI50,SF-295,> 100 µM (inactive)
same,GI50,SF-539,> 100 µM (inactive)
same,GI50,SK-MEL-28,> 100 µM (inactive)
same,GI50,SK-MEL-2,> 100 µM (inactive)
same,GI50,SK-MEL-5,> 100 µM (inactive)
same,GI50,SK-OV-3,> 100 µM (inactive)
same,GI50,SN12C,> 100 µM (inactive)
same,GI50,SNB-19,> 100 µM (inactive)
same,GI50,SNB-75,> 100 µM (inactive)
same,GI50,SNB-78,> 100 µM (inactive)
same,GI50,SR,> 100 µM (inactive)
same,GI50,SW-620,4.15 µM (inactive)
same,GI50,TK-10,> 100 µM (inactive)
same,GI50,U-251,> 100 µM (inactive)
same,GI50,UACC-257,> 100 µM (inactive)
same,GI50,UACC-62,> 100 µM (inactive)
same,GI50,UO-31,> 100 µM (inactive)
same,GI50,XF498,> 100 µM (inactive)
COc1cc2c[n+](C)c3c4cc5c(cc4ccc3c2cc1OC)OCO5 [NITIDINE CHLORIDE],GI50,786-0,2.49 µM (inactive)
same,GI50,A498,1.09 µM (active)
same,GI50,A549,0.18 µM (active)
same,GI50,ACHN,71.9 µM (inactive)
same,GI50,BT-549,6.5 µM (inactive)
same,GI50,CAKI-1,2.37 µM (inactive)
same,GI50,CCRF-CEM,0.752 µM (active)
same,GI50,COLO 205,1.66 µM (inactive)
same,GI50,DLD-1,14.9 µM (inactive)
same,GI50,DMS-114,1.24 µM (inactive)
same,GI50,DMS-273,0.745 µM (active)
same,GI50,DU-145,2.52 µM (inactive)
same,GI50,EKVX,1.7 µM (inactive)
same,GI50,HCC 2998,2.07 µM (inactive)
same,GI50,HCT-116,5.96 µM (inactive)
same,GI50,HCT-15,> 100 µM
same,GI50,HL-60,4.25 µM (inactive)
same,GI50,HOP-18,19.5 µM (inactive)
same,GI50,HOP-62,2.18 µM (inactive)
same,GI50,HOP-92,2.07 µM (inactive)
same,GI50,HT-29,1.56 µM (inactive)
same,GI50,Hs-578T,2.9 µM (inactive)
same,GI50,IGROV-1,1.03 µM (active)
same,GI50,K562,4.51 µM (inactive)
same,GI50,KM-20L2,0.608 µM (active)
same,GI50,KM12,2.07 µM (inactive)
same,GI50,LOX IMVI,3.97 µM (inactive)
same,GI50,LXFL 529,1.4 µM (inactive)
same,GI50,M14,17.1 µM (inactive)
same,GI50,M19-MEL,1.27 µM (inactive)
same,GI50,MCF7,1.14 µM (inactive)
same,GI50,MDA-MB-231,2.62 µM (inactive)
same,GI50,MDA-MB-435,> 100 µM (inactive)
same,GI50,MDA-N,64 µM (inactive)
same,GI50,MOLT-4,0.411 µM (active)
same,GI50,Malme-3M,14.5 µM (inactive)
same,GI50,NCI-H226,3.61 µM (inactive)
same,GI50,NCI-H23,1.07 µM (active)
same,GI50,NCI-H460,1.73 µM (inactive)
same,GI50,NCI-H522,0.24 µM (active)
same,GI50,NCI/ADR-RES,27 µM (inactive)
same,GI50,OVCAR-3,2.24 µM (inactive)
same,GI50,OVCAR-4,3.45 µM (inactive)
same,GI50,OVCAR-5,1.24 µM (inactive)
same,GI50,OVCAR-8,1.81 µM (inactive)
same,GI50,PC-3,2.33 µM (inactive)
same,GI50,RPMI-8226,2.06 µM (inactive)
same,GI50,RXF 393,12.4 µM (inactive)
same,GI50,RXF 631,19.8 µM (inactive)
same,GI50,SF-268,0.126 µM (active)
same,GI50,SF-295,5.93 µM (inactive)
same,GI50,SF-539,1.78 µM (inactive)
same,GI50,SK-MEL-28,9.38 µM (inactive)
same,GI50,SK-MEL-2,2.68 µM (inactive)
same,GI50,SK-MEL-5,5.27 µM (inactive)
same,GI50,SK-OV-3,0.877 µM (active)
same,GI50,SN12C,0.447 µM (active)
same,GI50,SNB-19,0.698 µM (active)
same,GI50,SNB-75,0.22 µM (active)
same,GI50,SNB-78,3.37 µM (inactive)
same,GI50,SR,0.839 µM (active)
same,GI50,SW-620,1.14 µM (inactive)
same,GI50,TK-10,29.3 µM (inactive)
same,GI50,U-251,0.371 µM (active)
same,GI50,UACC-257,26.1 µM (inactive)
same,GI50,UACC-62,1.25 µM (inactive)
same,GI50,UO-31,> 61.4 µM (inactive)
same,GI50,XF498,2.66 µM (inactive)
